Tests used:
[1] = Inhibition of PKA
[2] = Biodistribution in tail vein injected Sprague-Dawley rat brain after 5 to 60 mins; type: ADME, organism-based; conditions: iv, read-out: Drug uptake
[3] = Partition coefficient, log P in phosphate buffer at pH 7.4; type: physicochemical

| IC50 [1] [nM] | tissue uptake [2] [%ID/g] | logD [3] | Compound |
| --- | --- | --- | --- |
| 940 |  |  | O=S(=O)(NCCNC/C=C/c1ccc(Br)cc1)c1cccc2cnccc12 |
| 1280 | < 0.2 | 2.93 | CN(CCNC/C=C/c1ccc(Br)cc1)S(=O)(=O)c1cccc2cnccc12 |

— ChEMBL document CHEMBL1149891, “Rationally designed PKA inhibitors for positron emission tomography: Synthesis and cerebral biodistribution of N-(2-(4-bromocinnamylamino)ethyl)-N-[11C]methyl-isoquinoline-5-sulfonamide” (Bioorg Med Chem, 2008)
